Data: PubChem BioAssay AID2060884 (Molecular Pharmacology Branch, DTP, NCI, 2025)
pIC50: −log10 of the molar value.

System: NCI-H929 complex spheroids, viability % test/control
Assay: Anticancer human tumor NCI-H929 cell line growth inhibition [RAS];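 also: compound exposure lasted seven days before viability was read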;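 as to viability, T/C: 100% = DMSO vehicle control viability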
Conditions: for viability, T/C: stronger effect = lower value; active = viability on the fitted dose curve at most 10% of control; inactive = the rest
How it was run: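 Tumour cells grown as complex spheroids with HUVEC endothelial cells and mesenchymal stem cells, treated with RAS pathway inhibitor combinations. Each agent spans half-log steps from near clinical Cmax, or 10 microM where Cmax is unknown.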

[1] = curve of first compound, second compound 0.00316 µM
[2] = curve of first compound, second compound 0.01 µM
[3] = curve of first compound, second compound 0.0316 µM
[4] = curve of first compound, second compound 0.1 µM
[5] = curve of first compound, second compound 0.316 µM
[6] = curve of first compound, second compound 1 µM
[7] = second compound 0.00316 µM, first compound 0.0316 µM
[8] = second compound 0.00316 µM, first compound 0.1 µM
[9] = second compound 0.00316 µM, first compound 0.316 µM
[10] = second compound 0.00316 µM, first compound 1 µM
[11] = second compound 0.01 µM, first compound 0.0316 µM
[12] = second compound 0.01 µM, first compound 0.1 µM
[13] = second compound 0.01 µM, first compound 0.316 µM
[14] = second compound 0.01 µM, first compound 1 µM
[15] = second compound 0.0316 µM, first compound 0.0316 µM
[16] = second compound 0.0316 µM, first compound 0.1 µM
[17] = second compound 0.0316 µM, first compound 0.316 µM
[18] = second compound 0.0316 µM, first compound 1 µM
[19] = second compound 0.1 µM, first compound 0.0316 µM
[20] = second compound 0.1 µM, first compound 0.1 µM
[21] = second compound 0.1 µM, first compound 0.316 µM
[22] = second compound 0.1 µM, first compound 1 µM
[23] = second compound 0.316 µM, first compound 0.0316 µM
[24] = second compound 0.316 µM, first compound 0.1 µM
[25] = second compound 0.316 µM, first compound 0.316 µM
[26] = second compound 0.316 µM, first compound 1 µM
[27] = second compound 1 µM, first compound 0.0316 µM
[28] = second compound 1 µM, first compound 0.1 µM
[29] = second compound 1 µM, first compound 0.316 µM
[30] = second compound 1 µM, first compound 1 µM

O=C(c1ccc(F)c(F)c1Nc1ccc(I)cc1F)N1CC(O)([C@@H]2CCCCN2)C1 + C=CC(=O)N1CCN(c2nc(OCC3CCCN3C)nc3c(F)c(-c4nc(N)cc(C)c4C(F)(F)F)c(Cl)cc23)C(C)C1
< 6.00: pIC50 [1] | pIC50 [2] | pIC50 [3] | pIC50 [4] | pIC50 [5] | pIC50 [6]
inactive: viability, T/C (second compound 0.00316 µM, first compound 0.00316 µM) 101% | viability, T/C (second compound 0.00316 µM, first compound 0.01 µM) 92.1% | viability, T/C [7] 85.7% | viability, T/C [8] 88.7% | viability, T/C [9] 112% | viability, T/C [10] 55.4% | viability, T/C (second compound 0.01 µM, first compound 0.00316 µM) 102% | viability, T/C (second compound 0.01 µM, first compound 0.01 µM) 91.2% | viability, T/C [11] 83.5% | viability, T/C [12] 94.2% | viability, T/C [13] 112% | viability, T/C [14] 58.3% | viability, T/C (second compound 0.0316 µM, first compound 0.00316 µM) 96.9% | viability, T/C (second compound 0.0316 µM, first compound 0.01 µM) 96.8% | viability, T/C [15] 88.6% | viability, T/C [16] 95.2% | viability, T/C [17] 112% | viability, T/C [18] 57.4% | viability, T/C (second compound 0.1 µM, first compound 0.00316 µM) 99.2% | viability, T/C (second compound 0.1 µM, first compound 0.01 µM) 93.4% | viability, T/C [19] 89.1% | viability, T/C [20] 93.3% | viability, T/C [21] 113% | viability, T/C [22] 56.7% | viability, T/C (second compound 0.316 µM, first compound 0.00316 µM) 97.8% | viability, T/C (second compound 0.316 µM, first compound 0.01 µM) 101% | viability, T/C [23] 84.3% | viability, T/C [24] 92.7% | viability, T/C [25] 117% | viability, T/C [26] 54.4% | viability, T/C (second compound 1 µM, first compound 0.00316 µM) 106% | viability, T/C (second compound 1 µM, first compound 0.01 µM) 97.5% | viability, T/C [27] 91.3% | viability, T/C [28] 104% | viability, T/C [29] 116% | viability, T/C [30] 54%

C[C@@H](NC(=O)c1ncnc(N)c1Cl)c1ncc(C(=O)Nc2cc(C(F)(F)F)c(Cl)cn2)s1 + C=CC(=O)N1CCN(c2nc(OCC3CCCN3C)nc3c(F)c(-c4nc(N)cc(C)c4C(F)(F)F)c(Cl)cc23)C(C)C1
inactive: viability, T/C [7] 106% | viability, T/C [8] 95.9% | viability, T/C [9] 101% | viability, T/C [10] 97.9% | viability, T/C (second compound 0.00316 µM, first compound 3.16 µM) 101% | viability, T/C (second compound 0.00316 µM, first compound 10 µM) 115% | viability, T/C [11] 91.8% | viability, T/C [12] 101% | viability, T/C [13] 92.3% | viability, T/C [14] 83.8% | viability, T/C (second compound 0.01 µM, first compound 3.16 µM) 91.2% | viability, T/C (second compound 0.01 µM, first compound 10 µM) 116% | viability, T/C [15] 95% | viability, T/C [16] 94.1% | viability, T/C [17] 93% | viability, T/C [18] 87.8% | viability, T/C (second compound 0.0316 µM, first compound 3.16 µM) 100% | viability, T/C (second compound 0.0316 µM, first compound 10 µM) 115% | viability, T/C [19] 85.9% | viability, T/C [20] 95.2% | viability, T/C [21] 104% | viability, T/C [22] 97.7% | viability, T/C (second compound 0.1 µM, first compound 3.16 µM) 103% | viability, T/C (second compound 0.1 µM, first compound 10 µM) 114% | viability, T/C [23] 99.6% | viability, T/C [24] 102% | viability, T/C [25] 102% | viability, T/C [26] 95% | viability, T/C (second compound 0.316 µM, first compound 3.16 µM) 97.3% | viability, T/C (second compound 0.316 µM, first compound 10 µM) 117% | viability, T/C [27] 110% | viability, T/C [28] 101% | viability, T/C [29] 103% | viability, T/C [30] 108% | viability, T/C (second compound 1 µM, first compound 3.16 µM) 103% | viability, T/C (second compound 1 µM, first compound 10 µM) 111%
< 5.00: pIC50 [1] | pIC50 [2] | pIC50 [3] | pIC50 [4] | pIC50 [5] | pIC50 [6]

C#Cc1c(F)ccc2cc(O)cc(-c3ncc4c(N5CC6CCC(C5)N6)nc(OCC56CCCN5CC(F)C6)nc4c3F)c12 (stereo not drawn)
inactive: viability, T/C (compound 0.0316 µM) 102% [middle of 8 runs] | viability, T/C (compound 0.1 µM) 103% [middle of 8 runs] | viability, T/C (compound 0.316 µM) 101% [middle of 8 runs] | viability, T/C (compound 1 µM) 97% [middle of 8 runs] | viability, T/C (compound 3.16 µM) 97.6% [middle of 8 runs] | viability, T/C (compound 10 µM) 96.6% [middle of 8 runs]
< 5.00: pIC50 (compound alone, run of 09/09/2024)

CC(C)n1nc(-c2ccc3oc(N)nc3c2)c2c(N)ncnc21 + CCn1c(-c2cc(N3CCN(C)CC3)cnc2C(C)OC)c2c3cc(ccc31)-c1csc(n1)CC(NC(=O)C1CC1C)C(=O)N1CCCC(N1)C(=O)OCC(C)(C)C2
7.53: pIC50 (curve of first compound, second compound 0.00949 µM)
8.59: pIC50 (curve of first compound, second compound 0.03 µM)
7.26: pIC50 (curve of first compound, second compound 0.000949 µM) | pIC50 (curve of first compound, second compound 0.003 µM)
active: viability, T/C (second compound 0.000949 µM, first compound 0.1 µM) 3.1% | viability, T/C (second compound 0.003 µM, first compound 0.1 µM) 3.74% | viability, T/C (second compound 0.00949 µM, first compound 0.1 µM) 1.87% | viability, T/C (second compound 0.03 µM, first compound 0.0316 µM) 4.36% | viability, T/C (second compound 0.03 µM, first compound 0.1 µM) 0.46% | viability, T/C (second compound 0.0949 µM, first compound 0.000316 µM) 7.99% | viability, T/C (second compound 0.0949 µM, first compound 0.001 µM) 7.3% | viability, T/C (second compound 0.0949 µM, first compound 0.00316 µM) 2.87% | viability, T/C (second compound 0.0949 µM, first compound 0.01 µM) 1.59% | viability, T/C (second compound 0.0949 µM, first compound 0.0316 µM) 0.69% | viability, T/C (second compound 0.0949 µM, first compound 0.1 µM) 0.3% | viability, T/C (second compound 0.3 µM, first compound 0.000316 µM) 3.49% | viability, T/C (second compound 0.3 µM, first compound 0.001 µM) 2.63% | viability, T/C (second compound 0.3 µM, first compound 0.00316 µM) 1.48% | viability, T/C (second compound 0.3 µM, first compound 0.01 µM) 0.92% | viability, T/C (second compound 0.3 µM, first compound 0.0316 µM) 0.47% | viability, T/C (second compound 0.3 µM, first compound 0.1 µM) 0.34%
inactive: viability, T/C (second compound 0.000949 µM, first compound 0.000316 µM) 103% | viability, T/C (second compound 0.000949 µM, first compound 0.001 µM) 101% | viability, T/C (second compound 0.000949 µM, first compound 0.00316 µM) 111% | viability, T/C (second compound 0.000949 µM, first compound 0.01 µM) 110% | viability, T/C (second compound 0.000949 µM, first compound 0.0316 µM) 93.2% | viability, T/C (second compound 0.003 µM, first compound 0.000316 µM) 97.5% | viability, T/C (second compound 0.003 µM, first compound 0.001 µM) 95.7% | viability, T/C (second compound 0.003 µM, first compound 0.00316 µM) 101% | viability, T/C (second compound 0.003 µM, first compound 0.01 µM) 114% | viability, T/C (second compound 0.003 µM, first compound 0.0316 µM) 93% | viability, T/C (second compound 0.00949 µM, first compound 0.000316 µM) 108% | viability, T/C (second compound 0.00949 µM, first compound 0.001 µM) 114% | viability, T/C (second compound 0.00949 µM, first compound 0.00316 µM) 119% | viability, T/C (second compound 0.00949 µM, first compound 0.01 µM) 120% | viability, T/C (second compound 0.00949 µM, first compound 0.0316 µM) 45.1% | viability, T/C (second compound 0.03 µM, first compound 0.000316 µM) 74.5% | viability, T/C (second compound 0.03 µM, first compound 0.001 µM) 74.2% | viability, T/C (second compound 0.03 µM, first compound 0.00316 µM) 39.7% | viability, T/C (second compound 0.03 µM, first compound 0.01 µM) 26.1%
> 9.50: pIC50 (curve of first compound, second compound 0.0949 µM) | pIC50 (curve of first compound, second compound 0.3 µM)
